# Experimental data: patent publication US11059844B2, “Immune stimulating macrolides” (ISR IMMUNE SYSTEM REGULATION HOLDING AB (PUBL), priority 2017, dated 2021)
# Legend:
# [1] = system: CD25+ cells; assay: CD25 expression in blood of mice after i.v. dosing; type: in vivo, C57bl/6 mice; details: highest dose of 5 mg/kg, 24 h
# Description: FIG. 14: % CD25high cells in blood of C57bl/6 mice injected 24 h previously with indicated dose of compound 1. CD25 expression was measured by flow cytometry.
# (§1) Study 13: Compound 1 was administered i.v. to C57bl/6 mice at 0.165 mg/kg to 5 mg/kg. CD25+ cell abundance was increased in animals receiving the highest dose of 5 mg/kg (FIG. 14), as was body weight in the same group (not shown).
# [2] = system: E. coli, S. salivarius, L. casei, B. longum or M. luteus; assay: Direct antibacterial activity, summary over all strains tested; type: cell-based; details: summary in words of Table 1
# Description: (§2) The bioactivity of macrolide compounds against 4 strains of common gut bacteria (Escherichia coli, Streptococcus salivarius subsp. salivarius, Lactobacillus casei and Bifidobacterium longum subsp. infantis) and common mammalian skin isolate Micrococcus luteus, was assessed using the Minimum Inhibitory Concentration (MIC) assay. Bacterial strains were purchased from DSMZ (Brunswick, Germany) except M. luteus which was obtained from NCIMB, and stored in 20% glycerol at −80° C. Stock solutions (100% DMSO) of positive controls (azithromycin and erythromycin), and of test compounds 1 and 2 were diluted in broth to working stock concentrations of 256 μg/ml (final assay testing concentration range 128 μg/ml to 0.00391 μg/ml). Stock solutions of all other compounds were diluted in broth to working stock concentrations of 128 μg/ml (final assay testing concentration range 64 μg/ml to 0.00195 μg/ml). Bacterial strains were cultivated in appropriate broth in an anaerobic chamber at 37° C., except for M. luteus which was incubated aerobically at 37° C. 18 h cultures were diluted in broth to an OD595 of 0.1 and then further diluted 1:10. In 96-well plates, in duplicate, 200 μl working stock of test compound was transferred to well 1 and serially diluted (1:2) in broth. 100 μl bacterial suspension was aliquoted into each well and mixed thoroughly. Appropriate sterility controls were included and plates were incubated in an anaerobic chamber, or aerobically (M. luteus) at 37° C. for 18 h. The MIC was determined to be the concentration of test compound in the first well with no visible growth.
# [3] = system: CD4+ T cells; assay: IL-1beta secretion from CD4+ T cells (cytometric bead assay); type: cell-based, Human; details: 2 days
# Description: (§3) FIG. 13: IL1b secretion (as measured by cytometric bead assay) from PBMC, macrophages or CD4 T cells stimulated with indicated compound for 48 h.
# (§4) Study 12: PBMCs, macrophages and CD4+ T cells where exposed to compounds 1 and 2 for 2 days.
# [4] = system: PBMCs; assay: Supernatant IL-10 sandwich ELISA; type: cell-based, Human; details: […] with 100 U/mL IL-2, 48 h and 7 days
# Description: Supernatant IL-10 was measured with a standard sandwich ELISA (all antibodies from BD Biosciences) after 48 hours and 7 days incubation with 2.5 μM of compound 1 and 100 U/mL IL-2 (Miltenyi Biotechnologies) in complete RPMI media, 37° C., 5% CO2
# Supernatant IL-10 was measured with a standard sandwich ELISA (all antibodies from BD Biosciences) after 48 hours and 7 days incubation with 2.5 uM of compound 1 and 100 U/mL IL-2 (Miltenyi Biotechnologies) in complete RPMI media, 37° C., 5% CO2.
# This indicate an immune inhibitory effect under certain conditions (FIG. 5).
# [5] = system: Macrophages from healthy donors; assay: Cytokine/chemokine secretion from macrophages (cytometric bead assay); type: cell-based, Human
# Description: FIG. 10: Interferon-gamma secretion (as measured by cytometric bead assay) from macrophages stimulated with indicated compound for 48 h.
# (§5) FIG. 11: Chemokine RANTES secretion (as measured by cytometric bead assay) from PBMC or macrophages stimulated with indicated compound for 48 h.
# (§6) FIG. 12: IL12p70 secretion (as measured by cytometric bead assay) from PBMC or macrophages stimulated with indicated compound for 48 h.
# as §3
# Study 9: Macrophages from healthy donors where exposed to compounds 1 or 2 for 48 hours. […] Compound 1 is therefore able to induce IFN-gamma secretion in macrophages from healthy donors.
# (§7) Study 10: PBMCs and macrophages where exposed to compounds 1 or 2 for 2 days (FIG. 11).
# (§8) Study 11: PBMCs and macrophages where exposed to compounds 1 and 2 for 2 days.
# as §4
# [6] = system: PBMCs from CMV infected donors; assay: IFN-gamma secretion from PBMCs of CMV infected donors with CMV antigen (cytometric bead assay); type: cell-based, Human; details: 3 days
# Source text: FIG. 9: Interferon-gamma secretion (as measured by cytometric bead assay) from PBMCs (from a CMV+ donor) grown with CMV peptides in the presence or absence of compound 1 or A for 5 days.
# Study 8: PBMCs from CMV infected donors cultured in the presence of CMV antigen where either untreated or exposed to compound 1 or compound 2 for 3 days.
# [7] = system: T cells in PBMC; assay: T cell proliferation, Cell Trace Violet and flow cytometry; type: cell-based, Human; details: 6 days in the presence of IL-2
# Description: FIG. 7. CD4 T cell proliferation after 6 days stimulation with compound 1, measured with proliferation dye Celltrace violet (Invitrogen) and flow cytometry. Untreated cells (UNT) or compound A were used as controls.
# Study 6: PBMC were stimulated with compound 1 and cultured in RPMI media for 6 days in the presence of IL-2 (Miltenyi Biotechnologies) and Cell Trace Violet Dye (Invitrogen). Proliferation was measured with flow cytometry.
# [8] = Body weight of mice after i.v. dosing; type: in vivo, C57bl/6 mice; details: 5 mg/kg group (not shown)
# Description: as §1
# [9] = system: Streptococcus salivarius subsp. salivarius; assay: Minimum Inhibitory Concentration (MIC) assay; type: cell-based; details: anaerobic, 37° C., 18 h
# Description: as §2
# [10] = system: Lactobacillus casei; assay: Minimum Inhibitory Concentration (MIC) assay; type: cell-based; details: Lacticaseibacillus casei; anaerobic, 37° C., 18 h
# Description: as §2
# [11] = system: Micrococcus luteus; assay: Minimum Inhibitory Concentration (MIC) assay; type: cell-based; details: aerobic, 37° C., 18 h
# Description: as §2
# [12] = system: Bifidobacterium longum subsp. infantis; assay: Minimum Inhibitory Concentration (MIC) assay; type: cell-based; details: anaerobic, 37° C., 18 h
# Description: as §2
# [13] = system: Escherichia coli; assay: Minimum Inhibitory Concentration (MIC) assay; type: cell-based; details: anaerobic, 37° C., 18 h
# Description: as §2
# [14] = system: CD11b+ splenocytes; assay: MHC class I expression on CD11b+ splenocytes of mice after i.v. dosing; type: in vivo, C57bl/6 mice; details: spleen removed 24 h later
# Description: FIG. 15: % MHC class I high CD11 b+ cells in spleen of 3 individual C57bl/6 mice injected 24 h previously with indicated compound. MHC class I and CD11b expression was measured by flow cytometry.
# Study 14: Compound 1 or 2 was administered i.v. to C57bl/6 mice.
# [15] = system: PBMCs; assay: Cytokine/chemokine secretion from PBMCs (cytometric bead assay); type: cell-based, Human; details: 2 days
# Description: as §5, §6, §3, §7, §8, §4
smiles,measurement,setting,value
CC[C@H]1OC(=O)[C@H](C)[C@@H](O[C@H]2C[C@@H](N(C)C)[C@H](O)[C@@H](C)O2)[C@H](C)[C@@H](O)[C@](C)(O)C[C@@H](C)CN(C)[C@H](C)[C@@H](O)[C@]1(C)O [Compound 1],CD25+ cell abundance,[1],increased
same,antibacterial activity against the bacterial strains tested,[2],no antibacterial activity
same,"IL-1beta secretion, CD4+ T cells",[3],no IL-1beta was induced
same,production of IL-10,[4],increased production
same,"IL-1beta secretion, macrophages",[5]; 2 days,increased
same,"IL-12p70 secretion, macrophages",[5]; 2 days,secreted IL-12p70
same,"RANTES expression, macrophages",[5]; 2 days,high expression
same,"IFN-gamma secretion, macrophages",[5]; 48 hours,secreted IFN-gamma
same,"IFN-gamma secretion, PBMCs with CMV antigen",[6],induced secretion of high levels
same,cytokine driven proliferation of T cells,[7],altered cytokine driven proliferation profile
same,body weight,[8],increased
same,MIC,[9],> 64 µg/mL
same,MIC,[10],> 64 µg/mL
same,MIC,[11],> 256 µg/mL
same,MIC,[12],> 64 µg/mL
same,MIC,[13],> 64 µg/mL
same,splenocyte cells with high MHC I expression (CD11b+),[14],induced an increase
same,"IL-1beta secretion, PBMCs",[15],slightly
same,"IL-12p70 secretion, PBMCs",[15],secreted IL-12p70
same,"RANTES expression, PBMCs",[15],twofold upregulation
